In patent publication US6613340B2, “Substantive hydrophobic cationic UV-absorbing compounds” (Galaxy Surfactants Ltd., priority 2001, dated 2003):

Test: UV absorption (molar extinction coefficient)
Format: physicochemical
Details: in methanol
Experimental: Ethyl p-methoxy cinnamate (206.0 g, 1.0 mole), N,N-dimethylpropyldiamine (306.0 g, 3.0 mole) and sodium methoxide (2.0 g) were charged in a pressure reactor. The air inside the reactor was flushed out by purging of nitrogen. The reaction mixture was then stirred at 180° C. (this generated pressure of 18 kg/cm^2) for 36 hours. The progress of reaction was monitored by disappearance of ethyl p-methoxy cinnamate on chromatography (TLC and HPLC). The TLC was performed on aluminium coated silica gel plates (Merck-60-F-254) and viewed with a UV lamp at 254 nm. HPLC was performed using reversed phase technique on a C-18 bonded (octadecyl silane) column and 60% aqueous methanol as mobile phase (1.0 ml/min) and detection at 280 nm. The excess amine was removed under vacuum.

Row | molar extinction coefficient, ε (at λmax 310 nm) | molar extinction coefficient, ε (at 290 nm, in M-1cm-1 (unit assumed)) | Structure (SMILES)
1 | 25,000 | – | CCCCCCCCCCCC[N+](C)(C)CCCNC(=O)C=Cc1ccc(OC)cc1.Cc1ccc(S(=O)(=O)[O-])cc1 [p-methoxy cinnamidopropyldimethyllauryl ammonium tosylate]
2 | – | 24,224 | COc1ccc(C=CC(=O)NCCCN(C)C)cc1 [p-methoxy cinnamidopropyldimethylamine]
